Measured values: patent publication US20170127677A1, “Formulation of clomazone having reduced volatility” (BASF SE, priority 2014, published 2017)

Assay: Volatility of clomazone from spray solution: glass tube at 25° C. with air suction, loss determined by GC
Assay type: physicochemical
Conditions: 24 h; for reduction of volatility of Clomazone by compound (B): Test experiment 5, clomazone WP 100 g/ha, component B 335 g/ha
Experimental: However, a preferred method for determining the volatility of the compounds contained in the compositions according to the present invention is carried out as follows: Glass tubes (internal diameter 23 mm) are immersed in a water bath at 25° C. In the bottom of each of the glass tubes 100 μl of spray solution (component A and B diluted in water at the concentration that a farmer would typically spray) are applied with a pipette. A tube is inserted in the glass tube. The ending of the inserted tube stays 25 mm above the bottom of the glass tube (i.e. the test sample). Along the inserted tube, the air contained in each individual glass tube is constantly suctioned at 250 L/h for the whole system. All glass tubes are separated from the lid by spacers which ensure the inlet of fresh air to the glass tubes. After short time the test sample is evaporated. The system is stopped according to a defined sampling period, preferably after 24 hours. The glass tubes are taken out and washed with THF. The washing solution is analyzed by GC for the compound of interest, e.g. clomazone. The loss of compound is calculated in % of the total amount of compound applied in the initial 100 μl sample. The reference test samples for the quantification of the initial applied Clomazone contain also THF. Each value is generated from 3 to 4 independent measurements. This method allows determining the relative volatility of a certain compound depending on the additional compounds present in a certain composition.
Non-encapsulated Clomazone (as WP formulation) was prepared at 100 g/ha with 200 L water/ha. Paraffinic oil, rapeseed oil methyl ester and the aromatic solvent were added at 335 g/ha, while Dimethenamid was added at 500 g/ha. For the solvents, an appropriate emulsifier system was added. The sample size was 100 μl. The volatility test was carried out at 25° C. and the operating time was 24 h.
Solvents typically used in crop protection agents were tested for comparative purposes. As comparison dimethenamid (dimethenamid P) was also tested, but differently from example 1, the test sample solution was prepared at 335 g/ha.CE3 was included again. Two controls were included in the experiment. For the solvents, an appropriate emulsifier system was added. The volatility test was carried out at 25° C., the operating time was 24 h. The sample size was 100 μl.
Various fatty acid amides were tested as additional components in herbicidal compositions with respect to the question if volatility of clomazone in such compositions is affected. For the solvents, an appropriate emulsifier system was added. The volatility test was carried out at 25° C. the operating time was 24 h. The sample size was 100 μl. […]

Compound | reduction of volatility of Clomazone by compound (B) | effect on volatility of clomazone in the composition (Test experiment 1, clomazone WP 100 g/ha, dimethenamid 500 g/ha, solvents 335 g/ha) | effect on volatility of clomazone in herbicidal compositions (Test experiment 2, clomazone 100 g/ha, dimethenamid or solvent 335 g/ha)
CCc1cccc(C)c1N(C(=O)CCl)C(C)COC (racemic) [Metolachlor, (RS)-2-ethyl-6-methyl-N-(1′-methyl-2′-methoxyethyl)-chloracetanilid] | support the claimed reduction of volatility of Clomazone | – | –
COCC(C)N(C(=O)CCl)c1c(C)csc1C (stereo not shown) [Dimethenamid, R,S-2-Chloro-N-(2,4-dimethyl-3-thienyl)-N-(2-methoxy-1-methylethyl)acetamide] | – | significantly reduces the volatility of clomazone | significantly reduce the volatility of clomazone
CCC(CC)Nc1c([N+](=O)[O-])cc(C)c(C)c1[N+](=O)[O-] [Pendimethalin, N-(1-ethylpropyl)-3,4-dimethyl-2,6-dinitrophenylamine] | support the claimed reduction of volatility of Clomazone | – | –
